Values quoted from earlier work, collected in paper PMC12932482 (Frontiers in Pharmacology, 2026).

Settings: Obs, +CLA (with clarithromycin); ref Rengelshausen et al. (2003)

AUC0–3h: 11 ng·h/mL
Compound: C[C@H]1O[C@@H](O[C@H]2[C@@H](O)C[C@H](O[C@H]3[C@@H](O)C[C@H](O[C@H]4CC[C@@]5(C)[C@H](CC[C@@H]6[C@@H]5C[C@@H](O)[C@]5(C)[C@@H](C7=CC(=O)OC7)CC[C@]65O)C4)O[C@@H]3C)O[C@@H]2C)C[C@H](O)[C@@H]1O [digoxin]
